Results as given in patent publication US4668677A, “4-phenylphthalazine derivatives, their preparation and their use as pharmaceuticals” (Mitsubishi Chemical Industries Limited, priority 1984, dated 1987).
Read-outs that look alike come from different tables or passages of the source.

Experiments:
[1] = system: blood platelets; test: Activity to inhibit the aggregation of blood platelets (collagen, ex vivo after oral administration); assay type: in vivo, rat (male Wistar-ST strain); settings: Rattus norvegicus, Platelet
Protocol: Male Wistar-ST strain rats of an average body weight of 250 g were used, a group consisting of 8 animals. The test compound indicated in the following Table 1 was orally administered to rats in the form of a suspension in a 1% tragacanth aqueous solution at 4 ml/Kg (the test compound 10 mg/Kg).
One hour after the administration, blood samples were obtained from the carotid artery by means of a cannule. […] Tubes were turned upside-down and then subjected to centrifugation at 200×g over 15 minutes to assign the supernatant as a platelet-rich plasma (PRP). The residue was further centrifuged at […] over 15 minutes to assign the supernatant as a platelet-poor plasma (PPP). These supernatants were applied for determining the ability to aggregate blood platelets. […] As an aggregation inducing agent, collagen (availale from Hormon-chemie A.G.) was used at a concentration of 7 to 10 μg/ml.
Inhibitory rate to aggregate blood platelets was calculated according to the following equation: [formula] A: […] in the group to which the 1% tragacanth solution alone was given (Control)
B: Aggregation rate in the group to which the tragacanth solution of the test compound was given.

[2] = in vivo; settings: rat, po, rats
[3] = system: mice; test: Anti-thrombotic activity: arachidonic acid-induced mortality in mice; assay type: in vivo, mouse (male ICR-JCL strain); settings: for Survival time of dead mice: arachidonic acid 100 mg/Kg i.v.; for Mortality: arachidonic acid 100 mg/Kg i.v. after 1 hour
Protocol: (§1) Male ICR-JCL strain mice with an average body weight of about 25 g and male New Zealand White rabbits with an average body weight of about 3 Kg were used.
Where mice were used as experimental animals, a suspension of the test compound indicated in Table 3 in a 1% tragacanth aqueous solution was orally administered to animals at 20 ml/Kg. One hour after the administration, an arachidonic acid (PL-biochemical Co., Inc.) solution dissolved in a 0.1M sodium carbonate aqueous solution was intravenously given at 100 mg/Kg. Evaluation of activity was effected with the time from the administration of arachidonic acid up to the death of animals as well as mortality.

[4] = system: rabbits; test: Anti-thrombotic activity: arachidonic acid-induced mortality in rabbits; assay type: in vivo, rabbit (male New Zealand White)
Protocol: as §1
Where rabbits were used as experimental animals, a suspension of the test compound in a 1% tragacanth aqueous solution was orally administered to animals at 5 ml/Kg. Two hours after the administration, an arachidonic acid solution dissolved in a 0.1M potassium carbonate solution was injected into pinna vein at 1.4 mg/Kg.
Evaluation of activity was effected with mortality at the time when arachidonic acid given. If survived at the first administration of arachidonic acid, arachidonic acid was administered after 6 hours, 24 hours, 48 hours and 72 hours from the administration of the test compound, respectively, and mortality was determined in respective cases.

[5] = system: carotid artery; test: Action on blood flow volume in carotid artery; assay type: in vivo, rabbit (male New Zealand White)
Protocol: (§2) Male New Zealand White rabbits (body weight of 2.8 Kg to 3.5 Kg) were used and anesthetized with pentobarbital sodium. Blood flow volumes in the carotid artery and femoral artery were measured and recorded via a non-blood observing type of a probe for measuring blood flow volume. Also, blood pressure in femoral artery was simultaneously measured and recorded with measurement of blood flow.
(§3) The compound of this invention was dissolved in an aqueous solution containing 1% tartaric acid and 1% dimethylacetamide, while papaverine hydrochloride dissolved in 0.9% physiological saline. These test compounds were intravenously given through a residual polyethylene tube within femoral vein.

[6] = system: femoral artery; test: Action on blood flow volume in femoral artery; assay type: in vivo, rabbit (male New Zealand White)
Protocol: as §2, §3

[7] = system: femoral artery; test: Action on blood pressure in femoral artery; assay type: in vivo, rabbit (male New Zealand White)
Protocol: as §2, §3

CCC(CC)Nc1nnc(-c2ccccc2)c2ccccc12 [Compound 2, 1-(1-ethylpropylamino)-4-phenylphthalazine]
inhibition at 3 mg/kg ([1]; 3 mg/Kg oral (Table 5), read-out: Inhibitory rate of blood platelet aggregation): 39%
inhibition at 10 mg/kg ([1]; 10 mg/Kg oral (Table 5), read-out: Inhibitory rate of blood platelet aggregation): 70.1%
inhibition at 10 mg/kg ([1]; 10 mg/Kg oral, 1 hour after administration, collagen 7 to 10 μg/ml, read-out: Inhibitory rate (blood platelet aggregation)): 70.1%
inhibition at 30 mg/kg ([1]; 30 mg/Kg oral (Table 5), read-out: Inhibitory rate of blood platelet aggregation): 85.5%
inhibition at 100 mg/kg ([1]; 100 mg/Kg oral (Table 5), read-out: Inhibitory rate of blood platelet aggregation): 100%
LD50 [2]: > 8000 mg/kg
Survival time of dead mice ([3]; 10 mg/Kg oral): 127 ± 14 s
Mortality ([3]; 10 mg/Kg oral): 86%
Survival time of dead mice ([3]; 30 mg/Kg oral): 127.5 ± 14 s
Mortality ([3]; 30 mg/Kg oral): 86%
Mortality ([3]; 100 mg/Kg oral): 0%
Mortality ([3]; 300 mg/Kg oral): 0%
Mortality (number of rabbits) ([4]; 3 mg/Kg oral, 2 hrs. after administration, of 4 rabbits): 2
Mortality (number of rabbits) ([4]; 3 mg/Kg oral, 6 hrs. after administration, of 4 rabbits): 1
Mortality (number of rabbits) ([4]; 3 mg/Kg oral, 24 hrs. after administration, of 4 rabbits): 1
Mortality (number of rabbits) ([4]; 10 mg/Kg oral, 6 hrs. after administration, of 4 rabbits): 4
Mortality (number of rabbits) ([4]; 30 mg/Kg oral, 24 hrs. after administration, of 8 (Compound 1) or 4 rabbits): 2
Mortality (number of rabbits) ([4]; 30 mg/Kg oral, 48 hrs. after administration, of 8 (Compound 1) or 4 rabbits): 2
Blood flow volume in carotid artery, A: Before administration ([5]; 0.01 mg/Kg i.v.): 15.6 mL/min
Blood flow volume in carotid artery, B: After administration ([5]; 0.01 mg/Kg i.v.): 19.4 mL/min
Blood flow volume in carotid artery, C: Increase degree ([5]; 0.01 mg/Kg i.v.): 3.9 mL/min
Blood flow volume in carotid artery, D: Increase rate ([5]; 0.01 mg/Kg i.v.): 24.9%
Blood flow volume in carotid artery, A: Before administration ([5]; 0.05 mg/Kg i.v.): 13.9 mL/min
Blood flow volume in carotid artery, B: After administration ([5]; 0.05 mg/Kg i.v.): 17.7 mL/min
Blood flow volume in carotid artery, C: Increase degree ([5]; 0.05 mg/Kg i.v.): 3.8 mL/min
Blood flow volume in carotid artery, D: Increase rate ([5]; 0.05 mg/Kg i.v.): 24.8%
Blood flow volume in carotid artery, A: Before administration ([5]; 0.1 mg/Kg i.v.): 14.5 mL/min
Blood flow volume in carotid artery, B: After administration ([5]; 0.1 mg/Kg i.v.): 22.4 mL/min
Blood flow volume in carotid artery, C: Increase degree ([5]; 0.1 mg/Kg i.v.): 7.9 mL/min
Blood flow volume in carotid artery, D: Increase rate ([5]; 0.1 mg/Kg i.v.): 54.3%
Blood flow volume in carotid artery, A: Before administration ([5]; 0.5 mg/Kg i.v.): 16.7 mL/min
Blood flow volume in carotid artery, B: After administration ([5]; 0.5 mg/Kg i.v.): 32.1 mL/min
Blood flow volume in carotid artery, C: Increase degree ([5]; 0.5 mg/Kg i.v.): 15.4 mL/min
Blood flow volume in carotid artery, D: Increase rate ([5]; 0.5 mg/Kg i.v.): 96.0%
Blood flow volume in femoral artery, A: Before administration ([6]; 0.01 mg/Kg i.v.): 20.9 mL/min
Blood flow volume in femoral artery, B: After administration ([6]; 0.01 mg/Kg i.v.): 26.5 mL/min
Blood flow volume in femoral artery, C: Increase degree ([6]; 0.01 mg/kg i.v.): 5.6 mL/min
Blood flow volume in femoral artery, D: Increase rate ([6]; 0.01 mg/kg i.v.): 28.5%
Blood flow volume in femoral artery, A: Before administration ([6]; 0.05 mg/Kg i.v.): 18.8 mL/min
Blood flow volume in femoral artery, B: After administration ([6]; 0.05 mg/Kg i.v.): 20.3 mL/min
Blood flow volume in femoral artery, C: Increase degree ([6]; 0.05 mg/kg i.v.): 3.3 mL/min
Blood flow volume in femoral artery, D: Increase rate ([6]; 0.05 mg/kg i.v.): 13.4%
Blood flow volume in femoral artery, A: Before administration ([6]; 0.1 mg/Kg i.v.): 15.9 mL/min
Blood flow volume in femoral artery, B: After administration ([6]; 0.1 mg/Kg i.v.): 12.5 mL/min
Blood flow volume in femoral artery, C: Increase degree ([6]; 0.1 mg/kg i.v.): 3.4 mL/min
Blood flow volume in femoral artery, D: Increase rate ([6]; 0.1 mg/kg i.v.): 23.4%
Blood flow volume in femoral artery, A: Before administration ([6]; 0.5 mg/Kg i.v.): 19.5 mL/min
Blood flow volume in femoral artery, B: After administration ([6]; 0.5 mg/Kg i.v.): 13.8 mL/min
Blood flow volume in femoral artery, C: Increase degree ([6]; 0.5 mg/kg i.v.): 5.7 mL/min
Blood flow volume in femoral artery, D: Increase rate ([6]; 0.5 mg/kg i.v.): 36.7%
Blood pressure in femoral artery, A: Before administration ([7]; 0.01 mg/kg i.v.): 93.8 mmHg
Blood pressure in femoral artery, B: After administration ([7]; 0.01 mg/kg i.v.): 91.3 mmHg
Blood pressure in femoral artery, E: Lowering degree ([7]; 0.01 mg/kg i.v.): 2.5 mmHg
Blood pressure in femoral artery, F: Lowering rate ([7]; 0.01 mg/kg i.v.): 2.7%
Blood pressure in femoral artery, A: Before administration ([7]; 0.05 mg/kg i.v.): 90.8 mmHg
Blood pressure in femoral artery, B: After administration ([7]; 0.05 mg/kg i.v.): 83.7 mmHg
Blood pressure in femoral artery, E: Lowering degree ([7]; 0.05 mg/kg i.v.): 7.1 mmHg
Blood pressure in femoral artery, F: Lowering rate ([7]; 0.05 mg/kg i.v.): 8.07%
Blood pressure in femoral artery, A: Before administration ([7]; 0.1 mg/kg i.v.): 88.8 mmHg
Blood pressure in femoral artery, B: After administration ([7]; 0.1 mg/kg i.v.): 78.1 mmHg
Blood pressure in femoral artery, E: Lowering degree ([7]; 0.1 mg/kg i.v.): 10.6 mmHg
Blood pressure in femoral artery, F: Lowering rate ([7]; 0.1 mg/kg i.v.): 11.6%
Blood pressure in femoral artery, A: Before administration ([7]; 0.5 mg/kg i.v.): 87.5 mmHg
Blood pressure in femoral artery, B: After administration ([7]; 0.5 mg/kg i.v.): 69.2 mmHg
Blood pressure in femoral artery, E: Lowering degree ([7]; 0.5 mg/kg i.v.): 18.3 mmHg
Blood pressure in femoral artery, F: Lowering rate ([7]; 0.5 mg/kg i.v.): 21.2%
